Here are results for three molecules from patent US20130172387A1, “METHOD AND COMPOSITION FOR PROLONGING ANALGESIC EFFECT OF LOCAL ANESTHETIC” (priority 2011, published 2013).

Several values for one entry are separate records, joined by “and”; a condition that tells them apart may be missing. Equal entries are not always repeated.

Data set [1] has as its system cutaneous trunci muscle reflex (CTMR). As to the kind of experiment: Noxious pinprick test of the cutaneous trunci muscle reflex after subcutaneous injection. The format is in vivo. The note with it: rat; for time of complete recovery (CRT): s.c. 0.6 ml, mean ± SE, n=8. As for the experimental part:
Subcutaneous Injection The animal experimental protocol was approved by the Animal Committee of Mackay Memorial Hospital in Taipei, Taiwan. Male Sprague-Dawley rats were purchased from BioLasco (Taipei, Taiwan) and kept in an air-conditioned animal shelter at room temperature of 22° C. to 24° C. with controlled level of humidity (40% to 50%) in a 12-hour light-dark cycle. […] The rats were randomly assigned to treatments with a size of 8 rats per group. All rats were briefly anesthetized by inhalation of 2% isoflurane (Abbott Laboratories, North Chicago, Ill.). The back of each rat was carefully shaved with a razor and was left with no injuries. After the induction of inhalation anesthesia, the drugs were injected subcutaneously in the thoracolumbar region. The injections caused a circular elevation of the skin, creating a wheal of approximately 2 cm in diameter. This wheal was marked within a minute after the injection.
Neurobehavioral Examination Before the experiments were conducted, the animals were handled daily for up to 14 days to familiarize them with the behavioral investigator, the experimental environment, and the specific experimental protocols. A noxious pinprick test was used to measure the analgesic effect of the cutaneous trunci muscle reflex (CTMR), which is characterized by reflex movements of the skin over the back produced by twitches of the lateral thoracispinal muscles in response to local dorsal cutaneous stimulations. The von Frey filament (26.0 g) was affixed to an 18-gauge needle to standardize the stimulus intensity and to test the neurobehavioral examination. Six pinpricks were applied in the marked areas every 15 minutes after each drug administration until the rats were fully recovered from the block. Six pinpricks per test were sufficient enough to obtain reproducible results in rats among different study groups, while avoiding injury of the skin during repeated testing. […] The total absence of CTMR response was defined as a complete blockade with 100% of maximum possible effect (MPE). Three CTMR pinprick responses indicated a 50% of MPE, while 0% of observed MPE would show the presence of all six CTMR pinprick responses. The complete recovery time (CRT) is defined as the time period when the presence of all six pinprick responses returned with 0% of MPE. All CTMR responses observed in rats were under stable vital signs. To determine skin irritation (such as necrosis, swelling and inflammation), assessment in any macroscopic changes of the skin color and texture was further studied. Systemic side effects such as sedation, agitation, and respiratory distress were also evaluated. The observer was not informed about the drugs used.
Statistical Analysis The statistical difference between the treatment groups was tested by using Mann-Whitney Rank Sum Test to evaluate the analgesic degree of MPE. Microcal Origin version 7 (Microcal Software, Northampton, Mass.) and SigmaStat (Systat Software, Inc., Chicago, Ill.) were used to calculate the values of MPE, creating figures and analyzing statistics. A p value of less than 0.05 was defined significant. All data are presented as mean±SE.

In data set [2] the test system is subcutaneous tissue. The conditions noted are these: rat, in vivo, sc. As for the experimental part:
Histology To determine the toxicity of the present composition to the subcutaneous tissue, skin was excised from the injected area of anesthetized rats two days later. The skin cross-section samples were fixed in 4% paraformaldehyde overnight and stained with hematoxylin and eosin.
Tissue inflammation was evaluated by the level of lymphocytic infiltrations in the cinnamaldehyde-injected subcutaneous layer of rats' cross-sectioned skin at 48 h.

Data set [3] relates to skin. The note with it: rat, in vivo, sc. As for the experimental part:
Neurobehavioral Examination Before the experiments were conducted, the animals were handled daily for up to 14 days to familiarize them with the behavioral investigator, the experimental environment, and the specific experimental protocols. A noxious pinprick test was used to measure the analgesic effect of the cutaneous trunci muscle reflex (CTMR), which is characterized by reflex movements of the skin over the back produced by twitches of the lateral thoracispinal muscles in response to local dorsal cutaneous stimulations. […] Three CTMR pinprick responses indicated a 50% of MPE, while 0% of observed MPE would show the presence of all six CTMR pinprick responses. The complete recovery time (CRT) is defined as the time period when the presence of all six pinprick responses returned with 0% of MPE. […] To determine skin irritation (such as necrosis, swelling and inflammation), assessment in any macroscopic changes of the skin color and texture was further studied. Systemic side effects such as sedation, agitation, and respiratory distress were also evaluated. The observer was not informed about the drugs used.

Setting [4] is: cinnamaldehyde 0.5% alone, or given 10 min before lidocaine 0.5% / bupivacaine 0.0625%.
Where [5] appears, read: cinnamaldehyde 1% alone, or given 10 min before lidocaine 0.5% / bupivacaine 0.0625%.
The mark [6] stands for this setting: cinnamaldehyde 2% alone, or given 10 min before lidocaine 0.5% / bupivacaine 0.0625%.

Consider `CCN(CC)CC(=O)Nc1c(C)cccc1C` [Lidocaine, 2-(diethylamino)-N-(2,6-dimethylphenyl)acetamide], for which the “time of complete recovery (CRT)” value is 65.63 ± 2.74 min and 65.63 min in data set [1] (setting [4]); 106.88 ± 3.40 min and 106.88 min in data set [1] (setting [5]); 157.50 ± 5.67 min and 157.50 min in data set [1] (setting [6]). Besides, the “duration of complete nociceptive block to pinpricks” value in data set [1] (s.c., 2% cinnamaldehyde followed 10 min later by 0.5% lidocaine) is reported as “about 15 minutes”. Also, the “analgesic effect, dose dependence” value in data set [1] (s.c., cinnamaldehyde 0.5%, 1%, 2% followed by 0.5% lidocaine) was “Dose dependent analgesic effect”.
`O=CC=Cc1ccccc1` [Cinnamaldehyde, cinnamaldehyde]: the “lymphocytic infiltration (tissue inflammation) in subcutaneous layer” value in data set [2] is “More lymphocytic infiltrations”. In addition, the “time of complete recovery (CRT)” value in data set [1] (setting [4]) is 43.13 ± 5.97 min and 43.13 min; in data set [1] (setting [5]) it was 63.75 ± 4.70 min and 63.75 min; in data set [1] (setting [6]) it was 95.63 ± 3.95 min and 95.63 min. In addition, the “analgesic effect, dose dependence” value in data set [1] (s.c., cinnamaldehyde alone at 0.5%, 1% and 2%) was “dose-dependent analgesic effect”. Besides, the skin irritation result in data set [3] is listed as “neither obvious change of skin color nor injury was observed”.
For `CCCCN1CCCCC1C(=O)Nc1c(C)cccc1C` (centres unmarked) [Bupivacaine, 1-butyl-N-(2,6-dimethylphenyl)piperidine-2-carboxamide], the “time of complete recovery (CRT)” value in data set [1] (cinnamaldehyde 0% (vehicle): lidocaine 0.5% or bupivacaine 0.0625% alone) was 91.88 ± 4.43 min and 91.88 min; in data set [1] (setting [4]), 78.75 min; in data set [1] (setting [5]), 116.25 ± 4.70 min and 116.25 min; in data set [1] (setting [6]), 159.38 ± 6.30 min and 159.38 min. Also, the “duration of complete nociceptive block” value in data set [1] (s.c., bupivacaine 0.0625% alone) is given as “approximately 45 minutes”. The “complete nociceptive block to pinpricks” value in data set [1] (s.c., cinnamaldehyde 0.5%, 1%, 2% followed 10 min later by bupivacaine 0.0625%) is “increased”.
